This is an account of results in patent US20090163490A1, “Pyrrolopyrimidine Derivatives Used As HSP90 Inhibitors” (VERNALIS (R&D) LTD., priority 2006, published 2009).

One may read the GI50 as the concentration giving 50% growth inhibition.

Where two headings read alike, the source gives them in different places.

In test [1] the test system is BT474 cells. Nature of the test: Sulforhodamine B (SRB) growth inhibition assay. Type of test: cell-based. To be noted: Homo sapiens, BT-474, activity range. How it is done:
A growth inhibition assay was also employed for the evaluation of test compounds:
Assessment of Cytotoxicity by Sulforhodamine B (SRB) Assay: Calculation of 50% Inhibitory Concentration (IC50).
• 1) Determine cell number by haemocytometer. • 2) Using an 8 channel multipipettor, add 160 μl of the cell suspension (3600 cells/well or 2×10^4 cells/ml) to each well of a 96-well microtitre plate. • 3) Incubate overnight at 37° C. in a CO2 incubator.
• 4) Stock solutions of drugs are prepared, and serial dilutions of each drug are performed in medium to give final concentrations in wells. • 5) Using a multipipettor, 40 μl of drug (at 5× final concentration) is added to quadruplicate wells. • 6) Control wells are at either side of the 96 well plates, where 40 μl of medium is added. • 7) Incubate plates in CO2 incubator for […].
• 8) Tip off medium into sink and immerse plate slowly into 10% ice cold trichloroacetic acid (TCA). Leave for about 30 mins on ice. • 9) Wash plates three times in tap water by immersing the plates into baths of tap water and tipping it off. • 10) Dry in incubator. • 11) Add 100 μl of 0.4% SRB in 1% acetic acid to each well (except the last row (right hand) of the 96 well plate, this is the 0% control, ie no drug, no stain. The first row will be the 100% control with no drug, but with stain). Leave for 15 mins. • 12) Wash off unbound SRB stain with four washes of 1% acetic acid. • 13) Dry plates in incubator. • 14) Solubilised SRB using […] of 10 mM Tris base and put plates on plate shaker for 5 mins. • 15) Determine absorbance at 540 nm using a plate reader. Calculate mean absorbance for quadruplicate wells and express as a percentage of value for control, untreated wells. • 16) Plot % absorbance values versus log drug concentration and determine the GI50., ie the concentration of test compound required to inhibit growth of the cells by 50%.
The compounds tested in the above assay were assigned to one of three activity ranges, namely A=<0.5 μM; B=0.5 μM to 10 μM; C=>10 μM, and the results for six of the compounds of the invention are reported in Table 2.

In test [2] the target is T1, human full-length HSP90 (Homo sapiens, UniProt P08238).
T1 construct: E. coli expressed human full-length HSP90 protein, purified >95%; made in house; host or cells: E. coli
Put plainly: Fluorescence polarization (FP) binding assay. To be noted: competitive displacement of fluorescein-labelled probe from human full-length HSP90, activity range. An excerpt:
Fluorescence Polarization Assay
Fluorescence polarization {also known as fluorescence anisotropy} measures the rotation of a fluorescing species in solution, where the larger molecule the more polarized the fluorescence emission. When the fluorophore is excited with polarized light, the emitted light is also polarized. The molecular size is proportional to the polarization of the fluorescence emission.
The fluoroscein-labelled probe—
binds to HSP90 {full-length human, full-length yeast or N-terminal domain HSP90} and the anisotropy {rotation of the probe:protein complex} is measured.
Test compound is added to the assay plate, left to equilibrate and the anisotropy measured again. Any change in anisotropy is due to competitive binding of compound to HSP90, thereby releasing probe.
Stored at room temperature. • 3) BSA (bovine serum albumen) 10 mg/ml (New England Biolabs # B9001S) • 4) 20 mM probe in 100% DMSO stock concentration. Stored in the dark at RT. Working concentration is 200 nM diluted in AR water and stored at 4° C.
• 1) Add 100 μl×buffer to wells 1A and 12A(=FP BLNK) • 2) Prepare assay mix—all reagents are kept on ice with a lid on the bucket as the probe is light-sensitive.
• 3) Aliquot 100 μl assay mix to all other wells • 4) Seal plate and leave in dark at room temp for 20 minutes to equilibrate
This gives 2.5 mM {50×} stock cpd−assuming cpds 20 mM. • 4) Repeat for wells A2 to A10. Control in columns 11 and 12. • 5) Transfer 5 μl from row A to row B—not column 12. Mix well. • 6) Transfer 5 μl from row B to row C. […] Add 2 μl of 100 mM standard cpd to wells B12-H12 {is positive control} • 13) The Z′ factor is calculated from zero controls and positive wells.
For orientation: In fluorescence polarisation assays a small probe gives low polarisation when free and higher when bound to something large.

[3] abbreviates: read-out: activity in the fluorescence polarization assay.
Setting [4] is: read-out: ACTIVITY* (Activity in the FP binding assay).

T1 sequence (P08238 whole entry): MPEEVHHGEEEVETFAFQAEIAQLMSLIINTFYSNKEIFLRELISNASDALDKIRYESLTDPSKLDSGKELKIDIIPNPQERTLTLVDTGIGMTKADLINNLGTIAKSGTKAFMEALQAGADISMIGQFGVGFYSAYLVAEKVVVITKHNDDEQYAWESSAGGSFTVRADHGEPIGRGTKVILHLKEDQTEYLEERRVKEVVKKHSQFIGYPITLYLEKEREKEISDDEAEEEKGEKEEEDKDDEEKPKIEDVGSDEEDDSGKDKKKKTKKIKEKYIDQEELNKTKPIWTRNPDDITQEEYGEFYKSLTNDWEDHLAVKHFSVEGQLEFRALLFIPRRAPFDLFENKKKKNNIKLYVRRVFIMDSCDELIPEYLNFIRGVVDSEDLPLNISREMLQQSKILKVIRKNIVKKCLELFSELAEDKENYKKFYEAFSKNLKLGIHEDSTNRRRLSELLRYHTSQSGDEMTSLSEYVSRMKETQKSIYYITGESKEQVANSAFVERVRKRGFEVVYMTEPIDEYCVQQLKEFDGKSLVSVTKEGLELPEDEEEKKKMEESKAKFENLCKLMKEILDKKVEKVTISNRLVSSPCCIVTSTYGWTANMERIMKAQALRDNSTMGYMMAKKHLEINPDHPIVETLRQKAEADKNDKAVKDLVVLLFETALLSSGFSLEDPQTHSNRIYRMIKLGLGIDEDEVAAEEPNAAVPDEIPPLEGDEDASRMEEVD

Regarding `CCN(CC)CCSc1nc(-c2ccc(F)cc2C)c2c(C#N)c[nH]c2n1` [Example 19, 2-(2-Diethylamino-ethylsulfanyl)-4-(4-fluoro-2-methyl-phenyl)-7H-pyrrolo[2,3-d]pyrimidine-5-carbonitrile], the GI50 in test [1] was in the range of 0.5 to 10 µM. The IC50 in test [2] (setting [3]) was less than 0.5 µM.
For `CCN(CC)CCOc1nc(-c2cc(OC)c(Cl)cc2Cl)c2c(C#N)c[nH]c2n1` [Example 24, 4-(2,4-Dichloro-5-methoxy-phenyl)-2-(2-diethylamino-ethoxy)-7H-pyrrolo[2,3-d]pyrimidine-5-carbonitrile] the same measures were 0.5 to 10 µM and less than 0.5 µM.
On to `CCN(CC)CCOc1cc(-c2nc(SCC(=O)NC)nc3[nH]cc(C#N)c23)c(Cl)cc1Cl` [Example 28, 2-{5-Cyano-4-[2,4-dichloro-5-(2-diethylamino-ethoxy)-phenyl]-7H-pyrrolo[2,3-d]pyrimidin-2-ylsulfanyl}-N-methyl-acetamide], for which the GI50 in test [1] is less than 0.5 µM. For the same molecule, in test [2] (setting [3]), the IC50 was less than 0.5 µM.
With `COc1cc(Cl)c(-c2nc(OCCN3CCC(F)(F)CC3)nc3[nH]cc(C#N)c23)cc1OC` [Example 31, 4-(2-Chloro-4,5-dimethoxy-phenyl)-2-[2-(4,4-difluoro-piperidin-1-yl)-ethoxy]-7H-pyrrolo[2,3-d]pyrimidine-5-carbonitrile], in test [1], the GI50 was less than 0.5 µM. Moreover, the IC50 in test [2] (setting [3]) was less than 0.5 µM.
In test [1], `CC(C)Sc1nc(-c2cc(OCc3ccccc3)c(Cl)cc2Cl)c2c(C#N)c[nH]c2n1` [Example 51] gave a concentration for 50% growth inhibition (GI50) of 0.5 to 10 µM. In test [2] (setting [4]), the IC50 was in the range of 0.5 to 10 µM.
Consider `COc1cc(Cl)c(-c2nc(SC)nc3[nH]cc(C#N)c23)cc1OCCN1CC[C@@H](F)C1` [Example 72], for which the 50% growth inhibitory concentration (GI50) in test [1] was less than 0.5 µM. Moreover, in test [2] (setting [4]), the IC50 is less than 0.5 µM.
Regarding `COc1cc(Cl)c(-c2nc(SC(C)CN3CCC(F)(F)C3)nc3[nH]cc(C#N)c23)cc1OC` (centres unmarked) [Example 83], in test [2] (setting [4]), the IC50 was less than 0.5 µM.
On the same count and under the same terms, as for `COc1cc(Cl)c(-c2nc(Sc3ccccc3)nc3[nH]cc(C#N)c23)cc1OC` [Example 84], the figure is less than 0.5 µM; as for `COc1cc(Cl)c(-c2nc(Sc3nccs3)nc3[nH]cc(C#N)c23)cc1OC` [Example 85], less than 0.5 µM.
On the same count and under the same terms, as for `COc1cc(Cl)c(-c2nc(Oc3ccccc3)nc3[nH]cc(C#N)c23)cc1OC` [Example 86], the figure is less than 0.5 µM.
On to `COc1cc(Cl)c(-c2nc(Cc3ccccc3)nc3[nH]cc(C#N)c23)cc1OC` [Example 87], for which the IC50 in test [2] (setting [4]) was less than 0.5 µM.
The same measure, in the same setting: as for `CCOC(=O)C(C)Sc1nc(-c2cc(OCCN3CCC(F)(F)C3)c(OC)cc2Cl)c2c(C#N)c[nH]c2n1` (centres unmarked) [Example 88], the figure is less than 0.5 µM; as for `COc1cc(Cl)c(-c2nc(SC(C)C(=O)O)nc3[nH]cc(C#N)c23)cc1OCCN1CCC(F)(F)C1` (centres unmarked) [Example 89], less than 0.5 µM.
The same measure, in the same setting: as for `COc1cc(Cl)c(-c2nc(SC(C)(C)CN3CCC(F)(F)C3)nc3[nH]cc(C#N)c23)cc1OC` [Example 90], the figure is less than 0.5 µM; as for `COc1cc(Cl)c(-c2nc(Sc3nccn3C)nc3[nH]cc(C#N)c23)cc1OC` [Example 91], 0.5 to 10 µM.
Still for that read-out and setting: under `CCN(CC)CCOc1cc(-c2nc(Sc3nccs3)nc3[nH]cc(C#N)c23)c(Cl)cc1OC` [Example 92] stands less than 0.5 µM.
Consider `CSc1nc(C(=O)N2Cc3ccccc3C2)c2c(C#N)c[nH]c2n1` [Example 93, 4-(1,3-Dihydro-isoindole-2-carbonyl)-2-methylsulfanyl-7H-pyrrolo[2,3-d]pyrimidine-5-carbonitrile], for which, in test [2] (setting [3]), the IC50 was in the range of 0.5 to 10 µM.
